The assay concerns the target T1, N-type Ca2+ channels in IMR-32 cells (Homo sapiens, UniProt Q00975).
T1 construct: host or cells: IMR-32 cells, differentiated with dibutyryl cAMP and bromodeoxyuridine
In words: Inhibition of N-type calcium flux in IMR-32 cells (Indo-1 fluorescence, nitrendipine present). The assay is classed as cell-based. The following applies: for IC50: IMR-32 cells, 5 μM nitrendipine, K+ depolarization. The essentials:
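Differentiated IMR-32 cells (7–13 days) were loaded with 5 μM Indo-1 AM, preincubated with compound for 10 min at 30° C, and depolarized with KCl/CaCl2 stimulation solution, with 5 μM nitrendipine blocking L-channels. Peak-minus-basal 400/490 nm emission ratio was plotted against drug concentration, and IC50 came from four-parameter logistic fits.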

The results in this text go back to patent publication US6423689B1, “Peptidyl calcium channel blockers” (Warner-Lambert Company, priority 1997, dated 2002).

Usually IC50 stands for the concentration that inhibits the measured activity by half. For orientation: inhibition means the change of the read-out against control, counted positive when it falls.

Molecules are shown by their SMILES.

T1 sequence (Q00975 whole entry): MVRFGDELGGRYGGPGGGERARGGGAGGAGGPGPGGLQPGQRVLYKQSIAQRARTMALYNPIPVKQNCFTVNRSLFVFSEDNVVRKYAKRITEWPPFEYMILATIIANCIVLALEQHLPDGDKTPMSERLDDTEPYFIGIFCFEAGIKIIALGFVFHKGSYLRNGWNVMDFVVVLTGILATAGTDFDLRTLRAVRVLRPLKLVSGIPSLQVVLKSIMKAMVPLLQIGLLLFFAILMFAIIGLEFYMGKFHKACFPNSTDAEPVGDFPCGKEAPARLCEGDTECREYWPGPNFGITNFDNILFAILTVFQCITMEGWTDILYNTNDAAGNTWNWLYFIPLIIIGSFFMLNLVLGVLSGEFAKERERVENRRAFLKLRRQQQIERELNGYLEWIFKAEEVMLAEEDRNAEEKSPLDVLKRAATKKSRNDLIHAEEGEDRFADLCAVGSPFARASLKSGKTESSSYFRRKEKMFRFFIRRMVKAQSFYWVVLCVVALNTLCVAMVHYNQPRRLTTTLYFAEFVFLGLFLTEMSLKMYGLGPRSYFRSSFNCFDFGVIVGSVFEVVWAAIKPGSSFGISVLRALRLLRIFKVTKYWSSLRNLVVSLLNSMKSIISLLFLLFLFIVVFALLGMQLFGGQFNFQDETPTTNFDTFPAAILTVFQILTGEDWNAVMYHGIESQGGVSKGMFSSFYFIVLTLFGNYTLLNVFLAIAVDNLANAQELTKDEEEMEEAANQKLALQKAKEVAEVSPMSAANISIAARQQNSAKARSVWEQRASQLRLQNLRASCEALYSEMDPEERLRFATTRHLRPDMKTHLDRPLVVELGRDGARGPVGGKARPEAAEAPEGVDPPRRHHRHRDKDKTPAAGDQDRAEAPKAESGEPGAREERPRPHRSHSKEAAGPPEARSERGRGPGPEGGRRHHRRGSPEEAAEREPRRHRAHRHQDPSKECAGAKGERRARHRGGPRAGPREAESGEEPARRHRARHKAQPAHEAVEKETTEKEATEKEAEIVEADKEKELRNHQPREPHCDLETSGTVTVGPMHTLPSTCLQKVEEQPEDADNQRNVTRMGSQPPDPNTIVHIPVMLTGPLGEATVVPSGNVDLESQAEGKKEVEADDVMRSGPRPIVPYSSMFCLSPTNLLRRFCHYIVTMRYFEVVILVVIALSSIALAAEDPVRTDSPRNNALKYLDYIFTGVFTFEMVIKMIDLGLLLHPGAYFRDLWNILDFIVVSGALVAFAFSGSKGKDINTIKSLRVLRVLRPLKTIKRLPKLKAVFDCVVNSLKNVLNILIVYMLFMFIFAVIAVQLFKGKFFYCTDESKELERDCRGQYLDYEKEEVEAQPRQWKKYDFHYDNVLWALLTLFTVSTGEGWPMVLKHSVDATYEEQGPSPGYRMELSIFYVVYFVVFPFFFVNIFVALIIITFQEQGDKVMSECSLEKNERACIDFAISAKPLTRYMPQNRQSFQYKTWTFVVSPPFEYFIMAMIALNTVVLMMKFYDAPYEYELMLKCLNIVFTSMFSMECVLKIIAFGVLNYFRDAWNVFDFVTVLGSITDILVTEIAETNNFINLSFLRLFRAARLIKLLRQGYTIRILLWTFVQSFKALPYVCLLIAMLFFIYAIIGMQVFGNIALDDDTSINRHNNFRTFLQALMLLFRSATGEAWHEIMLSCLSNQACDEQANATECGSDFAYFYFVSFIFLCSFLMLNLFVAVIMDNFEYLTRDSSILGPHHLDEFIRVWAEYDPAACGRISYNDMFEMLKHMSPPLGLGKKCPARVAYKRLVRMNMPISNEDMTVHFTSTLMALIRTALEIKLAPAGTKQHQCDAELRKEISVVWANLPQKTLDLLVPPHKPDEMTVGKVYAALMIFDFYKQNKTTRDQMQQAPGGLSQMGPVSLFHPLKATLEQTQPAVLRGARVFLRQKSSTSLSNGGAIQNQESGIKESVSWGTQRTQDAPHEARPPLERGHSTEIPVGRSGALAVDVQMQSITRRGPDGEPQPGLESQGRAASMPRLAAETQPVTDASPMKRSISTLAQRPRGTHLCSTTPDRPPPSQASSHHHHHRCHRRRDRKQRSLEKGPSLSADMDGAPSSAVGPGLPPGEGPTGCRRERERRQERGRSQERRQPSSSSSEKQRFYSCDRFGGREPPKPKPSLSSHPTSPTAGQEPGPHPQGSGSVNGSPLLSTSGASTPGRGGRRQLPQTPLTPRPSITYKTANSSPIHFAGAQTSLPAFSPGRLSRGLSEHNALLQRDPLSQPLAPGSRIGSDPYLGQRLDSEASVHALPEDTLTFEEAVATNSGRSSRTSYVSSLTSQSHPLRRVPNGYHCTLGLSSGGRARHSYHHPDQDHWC
T1 sequence (P54289 25-956 partner limits assumed): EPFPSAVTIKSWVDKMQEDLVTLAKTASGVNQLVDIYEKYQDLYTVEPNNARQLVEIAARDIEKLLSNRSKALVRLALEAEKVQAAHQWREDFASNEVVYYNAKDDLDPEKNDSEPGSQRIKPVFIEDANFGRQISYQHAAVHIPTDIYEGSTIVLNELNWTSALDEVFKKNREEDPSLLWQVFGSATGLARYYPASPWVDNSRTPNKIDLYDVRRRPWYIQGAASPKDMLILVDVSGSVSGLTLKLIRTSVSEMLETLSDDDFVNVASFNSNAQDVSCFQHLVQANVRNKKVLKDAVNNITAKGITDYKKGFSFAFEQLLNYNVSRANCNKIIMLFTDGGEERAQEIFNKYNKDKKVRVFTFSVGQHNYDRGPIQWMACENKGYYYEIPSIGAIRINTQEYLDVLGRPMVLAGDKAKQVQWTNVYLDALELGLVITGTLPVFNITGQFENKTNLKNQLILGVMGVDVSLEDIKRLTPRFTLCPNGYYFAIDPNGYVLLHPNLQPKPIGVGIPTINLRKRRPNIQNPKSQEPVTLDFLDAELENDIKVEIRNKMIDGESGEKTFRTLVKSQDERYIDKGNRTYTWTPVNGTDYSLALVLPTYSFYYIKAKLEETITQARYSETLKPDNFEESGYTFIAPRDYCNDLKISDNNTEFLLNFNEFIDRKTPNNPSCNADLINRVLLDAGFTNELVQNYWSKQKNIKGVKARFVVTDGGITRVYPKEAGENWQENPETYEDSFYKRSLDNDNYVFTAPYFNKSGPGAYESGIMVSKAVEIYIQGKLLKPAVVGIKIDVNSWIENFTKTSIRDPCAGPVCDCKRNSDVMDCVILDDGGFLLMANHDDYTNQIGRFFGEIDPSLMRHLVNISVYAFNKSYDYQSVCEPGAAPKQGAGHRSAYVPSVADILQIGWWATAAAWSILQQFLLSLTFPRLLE
T1 sequence (P54289 957-1103 partner limits assumed): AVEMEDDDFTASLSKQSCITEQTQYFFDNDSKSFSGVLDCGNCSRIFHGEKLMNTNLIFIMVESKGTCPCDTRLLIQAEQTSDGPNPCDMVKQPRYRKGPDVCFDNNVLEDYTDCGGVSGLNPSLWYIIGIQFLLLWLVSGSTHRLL
T1 sequence (P54284 whole entry partner): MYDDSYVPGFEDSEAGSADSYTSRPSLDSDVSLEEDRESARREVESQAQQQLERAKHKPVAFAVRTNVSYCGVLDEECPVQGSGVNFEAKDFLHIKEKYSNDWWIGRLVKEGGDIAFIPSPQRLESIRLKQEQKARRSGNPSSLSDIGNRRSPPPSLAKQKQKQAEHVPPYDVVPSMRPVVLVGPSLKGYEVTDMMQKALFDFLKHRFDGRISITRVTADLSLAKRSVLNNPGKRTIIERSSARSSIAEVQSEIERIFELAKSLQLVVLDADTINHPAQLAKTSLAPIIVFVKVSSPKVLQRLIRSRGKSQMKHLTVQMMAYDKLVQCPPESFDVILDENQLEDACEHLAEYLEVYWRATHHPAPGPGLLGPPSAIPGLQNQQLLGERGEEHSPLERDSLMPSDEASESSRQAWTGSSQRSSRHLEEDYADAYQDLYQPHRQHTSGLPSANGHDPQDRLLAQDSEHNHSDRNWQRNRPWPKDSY

In the case of `CC(C)C[C@H](NC(=O)N1CCCCCC1)C(=O)N[C@@H](Cc1ccc(OCc2ccccc2)cc1)C(=O)N1CCC(O)CC1` (relative stereo) [Example 235, [S-(R*,R*)]-Azepane-1-carboxylic acid {1-[1-(4-benzyloxy-benzyl)-2-(4-hydroxy-piperidin-1-yl)-2-oxo-ethylcarbamoyl]-3-methyl-butyl}-amide], the “Inhibition of Calcium Flux in IMR-32 Cells % Inhibition at 1 μM” value amounted to 20% and the “Inhibition of Calcium Flux in IMR-32 Cells % Inhibition at 10 μM” value was determined as 64%.
The matching figures for `CC(C)C[C@H](NC(=O)N1CCCCCC1)C(=O)N[C@@H](Cc1ccc(OCc2ccccc2)cc1)C(=O)NCCC#N` (relative stereo) [Example 236, [S-(R*,R*)]-Azepane-1-carboxylic acid {1-[2-(4-benzyloxy-phenyl)-1-(2-cyano-ethylcarbamoyl)-ethylcarbamoyl]-3-methyl-butyl}-amide]: 50% and 93%.
With `CC(C)C[C@H](NC(=O)N1CCCCCC1)C(=O)N[C@@H](Cc1ccc(OCc2ccccc2)cc1)C(=O)N1CCN(c2ccc(F)cc2)CC1` (relative stereo) [Example 240, [S-(R*,R*)]-Azepane-1-carboxylic acid (1-{1-(4-benzyloxy-benzyl)-2-[4-(4-fluoro-phenyl)-piperazin-1-yl]-2-oxo-ethylcarbamoyl}-3-methyl-butyl)-amide], the “Inhibition of Calcium Flux in IMR-32 Cells % Inhibition at 1 μM” value worked out at 63%, the “Inhibition of Calcium Flux in IMR-32 Cells % Inhibition at 10 μM” value is given as 86% and the IC50 was found to be 750 nM.
`CC(C)C[C@H](NC(=O)N1CCCCCC1)C(=O)N[C@@H](Cc1ccc(OCc2ccccc2)cc1)C(=O)NCc1cccc(I)c1` (relative stereo) [Example 241, [S-(R*,R*)]-Azepane-1-carboxylic acid {1-[2-(4-benzyloxy-phenyl)-1-(3-iodo-benzylcarbamoyl)-ethylcarbamoyl]-3-methyl-butyl}-amide]: the “Inhibition of Calcium Flux in IMR-32 Cells % Inhibition at 1 μM” value is given as 53% and the “Inhibition of Calcium Flux in IMR-32 Cells % Inhibition at 10 μM” value was found to be 83%.
Regarding `CC(C)C[C@H](NC(=O)N1CCCCCC1)C(=O)N[C@@H](Cc1ccc(OCc2ccccc2)cc1)C(=O)Nc1ccc(N2CCCCC2)cc1` (relative stereo) [Example 260, [S-(R*,R*)]-Azepane-1-carboxylic acid {1-[2-(4-benzyloxy-phenyl)-1-(4-piperidin-1-yl-phenylcarbamoyl)-ethylcarbamoyl]-3-methyl-butyl}-amide], the “Inhibition of Calcium Flux in IMR-32 Cells % Inhibition at 10 μM” value was 33%.
In the case of `CC(C)C[C@H](NC(=O)N1CCCCCC1)C(=O)N[C@@H](Cc1ccc(OCc2ccccc2)cc1)C(=O)c1cc[nH]n1` (relative stereo) [Example 261, [S-(R*,R*)]-Azepane-1-carboxylic acid {1-[2-(4-benzyloxy-phenyl)-1-(pyrazole-3-carbonyl)-ethylcarbamoyl]-3-methyl-butyl}-amide], the IC50 amounted to 2000 nM.
As for `COc1cc(C(=O)NC(CC(C)C)C(=O)N[C@@H](Cc2ccc(OCc3ccccc3)cc2)C(=O)OC(C)(C)C)cc(OC)c1OC` (stereo in doubt) [Example 92, [S(R*,R*)]-3-(4-Benzyloxy-phenyl)-2-[4-methyl-2-(3,4,5-trimethoxy-benzoylamino)-pentanoylamino]-propionic acid tert-butyl ester], the “Inhibition of Calcium Flux in IMR-32 Cells % Inhibition at 1 μM” value turned out to be 1% and the “Inhibition of Calcium Flux in IMR-32 Cells % Inhibition at 10 μM” value is recorded as 65%.
With `CSCCC(CO)NC(=O)[C@H](Cc1ccc(OCc2ccccc2)cc1)NC(=O)C(CC(C)C)NC(=O)N1CCCCCC1` (stereo in doubt) [Example 238, Azepane-1-carboxylic acid {(R)-1-[(S)-2-(4-benzyloxy-phenyl)-(S)-1-(1-hydroxymethyl-3-methylsulfanyl-propylcarbamoyl)-ethylcarbamoyl]-3-methyl-butyl}-amide], the IC50 came out at 740 nM. For the setting “IMR-32”, the inhibition at 1 µM was found to be 62% and the inhibition at 10 µM was determined as 95%.
